Data on five compounds can be found in patent US20070281040A1, “COMBINATION THERAPY OF HEDGEHOG INHIBITORS, RADIATION AND CHEMOTHERAPEUTIC AGENTS” (THE UNIVERSITY OF CHICAGO, priority 2004, published 2007).

Read-outs that look alike come from different tables or passages of the source.

For one data set, the system named is Mia PcCa-2 cells. Nature of the data set: Annexin V-PE apoptosis assay. It is filed as cell-based, human. The following applies: 24 hours. The protocol: (§1) Cyclopamine 4 μmol was added to culture media of exponentially growing cells with or without chemotherapeutic agents and irradiated at 12 hours. Cells were trypsinized after 24, 48 or 72 hours. Annexin levels were measured (Annexin V: PE Apoptosis Detection Kit, BD Biosciences Pharningen™, San Jose, Calif.) for 0.5×10^6 freshly detached cells. The presence of membrane permeabilization was monitored by 7-AAD (7-Amino-actinomycinD) staining per manufacturer's protocol. Cells were subsequently analyzed by FACScan (BD FACSCanto™, BD Biosciences Immunocytometry Systems™, San Jose, Calif. with the use of CellQuest software (BD CellQuest™ Pro, BD Biosciences Immunocytometry Systems™, San Jose, Calif. The percentage of apoptotic cells was calculated by scoring for cells positive for either annexin alone (early apoptotic) or both annexin and 7-AAD (late apoptotic). All experiments were done in triplicate.

A further data set deals with Mia PaCa-2 cells. Nature of the data set: Colony formation assay. The protocol:
Mia PaCa-2 cells were grown in DMEM high glucose, and supplemented with L-glutamine, 10% fetal bovine serum (FBS), and penicillin/streptomycin 1%.
250 to 1000 cells were plated in 60 mm dishes. Cells were incubated overnight. At twenty four hours cells were irradiated (3.5 Gy). Cyclopamine 2-10 μMol (Toronto Research Chemicals, TRC, supplier, Canada) was added to culture media, or combination of both. For chemotherapeutic agents, the drug was added to culture media at appropriate concentrations 24 hours after plating. Cultures were incubated for 10-14 days. […] Plating efficiency was normalized compared to control.

In data set [1] the test system is pancreatic cancer cell lines with over-activation of Hh pathway signaling. To be noted: cited from earlier work.
The subject of another data set is BxPC-3 cells. Nature of the data set: Colony formation assay. It counts as cell-based, human. The method, then: (§2) Cells were incubated overnight. […] Cultures were incubated for 10-14 days. […] Plating efficiency was normalized compared to control.
A further data set concerns HCT 116 cells. Nature of the data set: Colony formation assay. It counts as cell-based, human. The method, then: as §2
Data set [2] has as its system hedgehog expressing tumor cells. It is filed as cell-based. The method, then: as §1
Data set [3] has as its system murine tumor allografts of medulloblastoma. To be noted: mouse, in vivo; cited from earlier work.
Data set [4] has as its system prostate cancer xenografts. The following applies: high dose treatment; cited from earlier work.
In data set [5] the test system is hedgehog expressing tumor cells. It counts as cell-based. The source holds these as a separate data set.
Where [6] appears, read: cyclopamine 4 μM and irradiation 3.5 Gy.

Take `CC(=O)O[C@H]1C(=O)[C@@]2(C)[C@H]([C@H](OC(=O)c3ccccc3)[C@]3(O)C[C@H](OC(=O)[C@H](O)[C@@H](NC(=O)c4ccccc4)c4ccccc4)C(C)=C1C3(C)C)[C@]1(OC(C)=O)CO[C@@H]1C[C@@H]2O` [taxol, Paclitaxel]: in the data set on Mia PcCa-2 cells (taxol 1.7 nM), the “apoptosis (AnnexinV staining)” value came out at 64.9%. The “survival (colony formation)” value with Mia PaCa-2 cells (taxol 3.5 nM alone) was 91%.
In the case of `CC1=C2C[C@H]3[C@@H](CC=C4C[C@@H](O)CC[C@@]43C)[C@@H]2CC[C@]12O[C@@H]1C[C@H](C)CN[C@H]1[C@H]2C` [cyclopamine], the “apoptosis (in words)” value in data set [1] is given as “induced apoptosis”. For the same compound, the “survival (colony formation)” value in the data set with BxPC-3 cells (setting [6]) is given as 7%; with BxPC-3 cells (cyclopamine 10 μM), 11%; in the data set on BxPC-3 cells (cyclopamine 4 μMol alone), 33%; in the data set on HCT 116 cells (setting [6]), 35%; in the data set with HCT 116 cells (cyclopamine 10 μM) it was 74%; with HCT 116 cells (cyclopamine 4 μMol alone), 92%. In addition, the figures for the “survival (colony formation)” value in the data set on Mia PaCa-2 cells (cyclopamine 4 μM alone), in the data set on Mia PaCa-2 cells (setting [6]) and with Mia PaCa-2 cells (cyclopamine 10 μM) were 29%, 4% and 7%, respectively. In addition, the “effect on survival following irradiation (in words)” value with HCT 116 cells (cells that do not express the hedgehog pathway) is given as “did not have a significant effect on survival”. In addition, the “apoptosis of combination with radiation vs radiation alone (in words)” value in data set [2] (cyclopamine 4 μMol and radiation 3.5 Gy) is “not significantly different from radiation alone”. For the same compound, the “apoptotic cells (Annexin assay)” value amounted to 32.11% in data set [2] (cyclopamine 4 μMol and radiation 3.5 Gy, 24 hours); 28.5% in [2] (cyclopamine 4 μMol and radiation 3.5 Gy, 48 hours); 32.3% in data set [2] (cyclopamine 4 μMol and radiation 3.5 Gy, 72 hours); 18.15% in [2] (cyclopamine 4 μMol, 24 hours); 29.8% in [2] (cyclopamine 4 μMol, 48 hours); 32.9% in [2] (cyclopamine 4 μMol, 72 hours). The “tumor response (in words)” value in data set [3] was “anti-tumor effects”; in data set [4], “complete regression”. Moreover, the “apoptosis (AnnexinV staining)” value with Mia PcCa-2 cells (cyclopamine 4 μMol) stood at 18.2%. Further, the “cytotoxic effect when combined with irradiation (in words)” value in the data set with Mia PaCa-2 cells (hedgehog expressing tumor cells) was “additive cytotoxic effect”.
As to `CC1=C2C(=O)C3C(CC=C4CC(O)CCC43C)C2CCC12OC1CC(C)CNC1C2C` (centres unmarked) [jervine], in data set [5] (jervine 4 μMol and radiation 3.5 Gy), the “apoptosis of combination with radiation vs radiation alone (in words)” value was “differ little from radiation alone”. Moreover, the “apoptosis (Annexin V assay, in words)” value in [5] (jervine 4 μMol, 24, 48 or 72 hours) is given as “induces apoptosis in an increasing percentage of cells in a time-dependent manner”. Besides, in data set [5] (jervine, hedgehog expressing tumor cells), the “cytotoxic effect when combined with irradiation (in words)” value was “additive cytotoxic effect”.
Consider `Nc1ccn([C@@H]2O[C@H](CO)[C@@H](O)C2(F)F)c(=O)n1` [Gemcitabine], for which the “survival (colony formation)” value with Mia PaCa-2 cells (gemcitabine 7.3 nM alone) is 35%.
As for `N.N.[Cl][Pt][Cl]` [Cisplatin], the “survival (colony formation)” value in the data set with Mia PaCa-2 cells (cisplatin 0.8 μM alone) turned out to be 35%.
